Results: publication PMC11358582, “Discovery of a potential bladder cancer inhibitor CHNQD-01281 by regulating EGFR and promoting infiltration of cytotoxic T cells” (Marine Life Science & Technology, 2024)

What was measured:
J82 cell line = assay: Cell apoptosis analysis (Annexin V); assay type: cell-based, human; settings: J82, 0.32 µmol/L (control 4.15%)
Procedure: (§1) T24 and J82 cell lines were seeded in 6-well plates (3 × 10^5 cells/well) and treated with different concentrations of CHNQD-01281 or DMSO. Muse™ Annexin V and Dead Cell assay kit (Muse TM Cell Analyzer, Millipore (catalog no. MCH100105)) was used to determine the cell apoptosis by Muse cell analyzer (Millipore, Billerica, MA, USA).
(§2) Furthermore, treatment with CHNQD-01281 induced a dose-dependent increase in the total apoptosis of T24 and J82 cell lines. […] Meanwhile, the expression of apoptosis-related proteins cleaved PARP and cleaved caspase-3 were detected by Western blot. […] Therefore, CHNQD-01281 can induce DNA damage to arrest the cell cycle at the G0/G1 phase, affect the expression of DNA damage repair enzyme PARP, and finally induce apoptosis of bladder cancer cell lines.

T24 cell line = assay: Cell apoptosis analysis (Annexin V); assay type: cell-based, human; settings: T24, 0.32 µmol/L (control 3.45%)
Procedure: as §1, §2

cleaved PARP = assay: Western blot of apoptosis-related protein; assay type: cell-based, human; settings: Fig. S11b
Procedure: (§3) T24 and J82 cell lines were lysed in protein lysis buffer, which included phosphatase inhibitors and a cocktail of protease inhibitors. A BCA kit (SparkJade, China) was used to determine the total protein concentration. After protein denaturation, SDS-PAGE electrophoresis was performed and the protein transferred from the gel to a PVDF membrane (Millipore, USA). Then primary antibodies against cleaved caspases-3, cleaved PARP, AKT, phosphorylated AKT, ERK1/2, phosphorylated ERK1/2, EGFR, mTOR, phosphorylated mTOR and Tubulin (CST, USA) were diluted at 1:1000 at 4 °C overnight. The membranes were then washed and incubated with secondary antibodies dissolved in 5% nonfat milk. A chemiluminescence imaging system was used to detect the signals (Tanon, China).
as §2

cleaved caspase-3 = assay: Western blot of apoptosis-related protein; assay type: cell-based, human; settings: Fig. S11b
Procedure: as §3, §2

T24 xenograft = assay: T24 nude mice xenograft model; assay type: in vivo, BALB/c-nu mice; settings: for reduction of Ki67 expression level (IHC): tumor tissue
Procedure: Specific pathogen free (SPF)-grade C57BL/6 mice and BALB/c-nu mice were purchased from Jinan Pengyue Experimental Animal Center (license No. SCXK 20190003). The protocol was approved by the Research Review Committee of the Ocean University of China. All mice were housed in 12-h light and 12-h dark conditions in which the humidity was 50% ± 10% and the temperature was 22 ± 2 °C. All mice had free access to food and water. The human bladder cancer cell line T24 was injected subcutaneously into BALB/c-nu mice to construct a xenograft tumor model. The cell suspension of mouse bladder cancer cell line MB49 was injected into C57BL/6 mice subcutaneously to construct a syngeneic tumor model.
Fixed tissues were embedded in paraffin and then sectioned. The specimens were incubated with antibodies against Ki67, CD3, CD4, CD8 (Servicebio, China) and EGFR (ABclonal, China) at 4 °C overnight. The next day, the slides were washed with 1 × PBST three times for 5 min each and stained with the secondary antibodies and Hoechst 33342 dye (Beyotime, China) for 60 min for IF. For IHC staining, the sections were developed with a rabbit/mouse HRP kits (DAB) (Beyotime, China) according to the manufacturer’s instructions.
Therefore, xenograft and homologous tumor models were constructed to further evaluate the antitumor effect of CHNQD-01281 in vivo. The mouse bladder cancer xenograft model was established by the subcutaneous inoculation of the T24 cell line, then CHNQD-01281 was intraperitoneally administrated for two consecutive weeks (Fig. 5A).

C[C@H]1CCC/C=C/[C@@H]2C[C@H](O)C[C@H]2[C@H](OC(=O)/C=C/c2cccnc2)/C=C/C(=O)O1 [CHNQD-01281, Brefeldin A 4-O-3-(pyridin-3-yl) acrylate]
total apoptotic cells (J82 cell line): 27.9%
total apoptotic cells (T24 cell line): 27.8%
maximum expression level of cleaved PARP (cleaved PARP): 0.95 fold of the control group
maximum expression level of cleaved caspase-3 (cleaved caspase-3): 1.23 fold of the control group
reduction of Ki67 expression level (IHC) (T24 xenograft; 15 mg/kg, versus control): 38.32%
expression of EGFR in tumor (IHC) (T24 xenograft; 30 mg/kg): significantly down-regulated expression of EGFR
tumor growth inhibition rate (TGI %) (T24 xenograft; 30 mg/kg, i.p., QD, two weeks, tumor volume): 52.63%
reduction of Ki67 expression level (IHC) (T24 xenograft; 30 mg/kg, versus control): 66.47%
reduction of tumor weight (T24 xenograft; 30 mg/kg, versus control): 48.57%
